Measured values: PubChem BioAssay (NCI)
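The compound was tested at five concentrations on cells cultured in 96-well plates, with a 48-hour exposure period. Abbreviation: GI50, concentration required for 50% inhibition of growth. TGI denotes the concentration required for complete inhibition of growth.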

Experiments:
Experiment in all cases: NCI-60 cell line screen, 48 h
786-0 renal = system: 786-0 renal
A498 renal = system: A498 renal
ACHN renal = system: ACHN renal
BT-549 breast = system: BT-549 breast
CCRF-CEM leukemia = system: CCRF-CEM leukemia
DU-145 prostate = system: DU-145 prostate
EKVX NSCLC = system: EKVX NSCLC
HCC-2998 colon = system: HCC-2998 colon
HCT-15 colon = system: HCT-15 colon
HL-60(TB) leukemia = system: HL-60(TB) leukemia
MCF7 breast = system: MCF7 breast
MDA-MB-468 breast = system: MDA-MB-468 breast
MOLT-4 leukemia = system: MOLT-4 leukemia
NCI-H23 lung = system: NCI-H23 lung
OVCAR-3 ovarian = system: OVCAR-3 ovarian
OVCAR-4 ovarian = system: OVCAR-4 ovarian
RPMI-8226 leukemia = system: RPMI-8226 leukemia
RXF 393 renal = system: RXF 393 renal
SK-MEL-2 melanoma = system: SK-MEL-2 melanoma
SNB-19 CNS = system: SNB-19 CNS
TK-10 renal = system: TK-10 renal

Q: With `COc1ccc2nc(Nc3cccc(NC(=O)c4ccc(CN5CCCN(C)CC5)c(C(F)(F)F)c4)c3)ccc2c1` as the compound, how does the GI50 (786-0 renal) read?
A: The GI50 was 169 nM.

Q: And the TGI (786-0 renal)?
A: The TGI was 309 nM.

Q: And the GI50 (A498 renal)?
A: The GI50 was 177 nM.

Q: And the TGI (A498 renal)?
A: The TGI was 325 nM.

Q: What about the GI50 (ACHN renal) of the same compound?
A: The GI50 was 171 nM.

Q: What about the TGI (ACHN renal) of the same compound?
A: The TGI was 308 nM.

Q: What about the GI50 (BT-549 breast) of the same compound?
A: The GI50 was 160 nM.

Q: What about the TGI (BT-549 breast) of the same compound?
A: Its TGI is 297 nM.

Q: And the GI50 (CCRF-CEM leukemia)?
A: The GI50 was 173 nM.

Q: What about the TGI (CCRF-CEM leukemia) of the same compound?
A: Its TGI is 531 nM.

Q: What about the GI50 (DU-145 prostate) of the same compound?
A: The GI50 was 171 nM.

Q: And the TGI (DU-145 prostate)?
A: Its TGI is 316 nM.

Q: And the GI50 (EKVX NSCLC)?
A: Its GI50 is 167 nM.

Q: What about the TGI (EKVX NSCLC) of the same compound?
A: The TGI was 307 nM.

Q: And the GI50 (HCC-2998 colon)?
A: Its GI50 is 175 nM.

Q: What about the TGI (HCC-2998 colon) of the same compound?
A: Its TGI is 313 nM.

Q: What about the GI50 (HCT-15 colon) of the same compound?
A: Its GI50 is 51.1 nM.

Q: What about the TGI (HCT-15 colon) of the same compound?
A: Its TGI is 170 nM.

Q: What about the GI50 (HL-60(TB) leukemia) of the same compound?
A: The GI50 was 189 nM.

Q: And the TGI (HL-60(TB) leukemia)?
A: Its TGI is 438 nM.

Q: And the GI50 (MCF7 breast)?
A: Its GI50 is 121 nM.

Q: What about the TGI (MCF7 breast) of the same compound?
A: The TGI was 261 nM.

Q: What about the GI50 (MDA-MB-468 breast) of the same compound?
A: Its GI50 is 125 nM.

Q: What about the TGI (MDA-MB-468 breast) of the same compound?
A: The TGI was 256 nM.

Q: And the GI50 (MOLT-4 leukemia)?
A: The GI50 was 102 nM.

Q: What about the TGI (MOLT-4 leukemia) of the same compound?
A: The TGI was 352 nM.

Q: What about the GI50 (NCI-H23 lung) of the same compound?
A: Its GI50 is 148 nM.

Q: And the TGI (NCI-H23 lung)?
A: The TGI was 282 nM.

Q: And the GI50 (OVCAR-3 ovarian)?
A: The GI50 was 177 nM.

Q: And the TGI (OVCAR-3 ovarian)?
A: The TGI was 334 nM.

Q: And the GI50 (OVCAR-4 ovarian)?
A: Its GI50 is 171 nM.

Q: What about the TGI (OVCAR-4 ovarian) of the same compound?
A: The TGI was 340 nM.

Q: What about the GI50 (RPMI-8226 leukemia) of the same compound?
A: Its GI50 is 176 nM.

Q: And the TGI (RPMI-8226 leukemia)?
A: Its TGI is 456 nM.

Q: And the GI50 (RXF 393 renal)?
A: The GI50 was 134 nM.

Q: What about the TGI (RXF 393 renal) of the same compound?
A: The TGI was 267 nM.

Q: What about the GI50 (SK-MEL-2 melanoma) of the same compound?
A: Its GI50 is 175 nM.

Q: What about the TGI (SK-MEL-2 melanoma) of the same compound?
A: Its TGI is 315 nM.

Q: And the GI50 (SNB-19 CNS)?
A: Its GI50 is 173 nM.

Q: And the TGI (SNB-19 CNS)?
A: Its TGI is 313 nM.

Q: What about the GI50 (TK-10 renal) of the same compound?
A: Its GI50 is 179 nM.

Q: And the TGI (TK-10 renal)?
A: The TGI was 318 nM.

Q: `COc1cc(N)c(Cl)cc1C(=O)N[C@@H]1CCN(CCCOc2ccc(F)cc2)C[C@@H]1OC` was tested. Which GI50 (MDA-MB-468 breast) did it give?
A: Its GI50 is 89400 nM.

Q: What about the TGI (MDA-MB-468 breast) of the same compound?
A: The TGI was over 100000 nM.

Q: For `CN(C)CCN=c1nc2c(c(N)n1-c1ccccc1)c(=S)n(-c1ccccc1)c(=S)n2-c1ccccc1`, which GI50 (MDA-MB-468 breast) is on record?
A: The GI50 was 1360 nM.

Q: And the TGI (MDA-MB-468 breast)?
A: The TGI was 3020 nM.

Q: Which GI50 (MDA-MB-468 breast) does the source give for `CCOC(=O)/C=C/c1ccc([N+](=O)[O-])o1` here?
A: Its GI50 is 3760 nM.

Q: And the TGI (MDA-MB-468 breast)?
A: The TGI was 17500 nM.

Q: For `CCCCC[C@H]1C/C=C2/C(=O)C=C[C@@H]2C/C=C\CCCC(=O)O1`, which GI50 (MDA-MB-468 breast) is on record?
A: The GI50 was 134 nM.

Q: And the TGI (MDA-MB-468 breast)?
A: Its TGI is 577 nM.

Q: Which results are given for `COC(=O)N[C@@H](C)CNc1nccc(-c2cn(C(C)C)nc2-c2cc(Cl)cc(NS(C)(=O)=O)c2F)n1`?
A: GI50 (MDA-MB-468 breast): 24800 nM; TGI (MDA-MB-468 breast): > 100000 nM

Q: With `COc1ccc(N=c2nc3sc4cc(Cl)ccc4n3c(N)c2C#N)cc1` as the compound, how does the GI50 (MDA-MB-468 breast) read?
A: The GI50 was 1110 nM.

Q: What about the TGI (MDA-MB-468 breast) of the same compound?
A: Its TGI is 19700 nM.

Q: For `COc1ccc2c(c1)[n+](=O)c(/C=C/C(=O)c1cc(OC)c(OC)c(OC)c1)c(C)n2[O-]`, which GI50 (MDA-MB-468 breast) is on record?
A: The GI50 was 3160 nM.

Q: What about the TGI (MDA-MB-468 breast) of the same compound?
A: The TGI was 18000 nM.

Q: For `COc1ccc(C(=O)c2ccccc2)c(O)c1`, which GI50 (MDA-MB-468 breast) is on record?
A: The GI50 was 40000 nM.

Q: What about the TGI (MDA-MB-468 breast) of the same compound?
A: Its TGI is over 100000 nM.

Q: For `C/C(=N\NC(=S)N1CCCC1)c1ccccn1`, which GI50 (MDA-MB-468 breast) is on record?
A: The GI50 was under 10 nM.

Q: What about the TGI (MDA-MB-468 breast) of the same compound?
A: The TGI was 80.1 nM.

Q: For `CN(Cc1cnc2nc(N)nc(N)c2n1)c1c(Cl)cc(C(=O)NC(CCC(=O)O)C(=O)O)cc1Cl` (stereo unspecified), which GI50 (MDA-MB-468 breast) is on record?
A: The GI50 was under 21.1 nM.

Q: With `CCOC(=O)c1sc(NC(=O)COc2ccc(/C=C3\CCc4cc(OC)ccc4C3=O)cc2)nc1C` as the compound, how does the GI50 (MDA-MB-468 breast) read?
A: Its GI50 is 1730 nM.

Q: And the TGI (MDA-MB-468 breast)?
A: The TGI was 7200 nM.

Q: How did the GI50 (MDA-MB-468 breast) turn out when `O=C(NCc1cn(Cc2cccc(Oc3ccccc3)c2)nn1)c1cccnc1NCc1ccc(Cl)cc1` was run?
A: Its GI50 is 3440 nM.

Q: And the TGI (MDA-MB-468 breast)?
A: The TGI was over 100000 nM.

Q: Which GI50 (MDA-MB-468 breast) does the source give for `Cc1cc(C)c(-c2c(O)c(Br)c(-c3c(C)cc(C)c(Br)c3C)c(O)c2Br)c(C)c1Br` here?
A: The GI50 was 2830 nM.

Q: What about the TGI (MDA-MB-468 breast) of the same compound?
A: Its TGI is 11100 nM.

Q: What does the source list for `O=C(O)C(Cc1ccccc1)N1C(=O)/C(=C/C(Cl)=C/c2ccc([N+](=O)[O-])cc2)SC1=S` (stereo unspecified)?
A: GI50 (MDA-MB-468 breast): 1390 nM; TGI (MDA-MB-468 breast): 3280 nM

Q: For `CCC(=C(c1ccc(OCCN2CCCCCC2)cc1)c1ccc(OCCN2CCCCCC2)cc1)c1ccc(Cl)cc1`, which GI50 (MDA-MB-468 breast) is on record?
A: Its GI50 is 656 nM.

Q: What about the TGI (MDA-MB-468 breast) of the same compound?
A: The TGI was 1490 nM.
